Patent US7919470B2, “Glycopeptide composition with improved antibiotic activity” (Xellia Pharmaceuticals APS, priority 2003, dated 2011)
“And” between values parts separate entries of the source, which are not always exact repeats. Equal entries are not always repeated.

Key:
[1] = system: Staphylococcus aureus ATCC 6538; assay: Microbiological potency by agar diffusion; format: cell-based; conditions: for Potency IU/mg powder: agar diffusion, Example 1 spiking experiments; for Potential potency IU/mg (TA2 + TA3-1): potency of the powder related to its HPLC content of TA2 + TA3-1
Procedure: Accordingly, in one embodiment a Teicoplanin composition as described herein, has a higher antibiotic activity than a corresponding Teicoplanin composition that has a % (mg TA3)/(mg TA3+TA2) of 6.5%, where the antibiotic activity is measured by a microbiological agar diffusion assay using Staphylococcus aureus ATCC 6538 as test strain and the measured potential potency (IU per mg TA2+TA3/g composition) is used to calculate the antibiotic activity.
(§1) Potency of Teicoplanin TA2, TA3-1 alone or in combination was determined by agar diffusion assays. Furthermore, the antimicrobial effect of pure and spiked products was investigated through the determination of the minimum inhibitory concentration (MIC) by a modified “MIC” test in micro titer trays.
The potency test is carried out according to the assay described below. The assay method generally corresponds to USP 25 and Ph.Eur 4th ed., but differs from both with respect to test strain and from the USP with respect to agar holes (ponds) as preferred to cylinders. The test is carried out as a 2,2 design as described in section <111> of the USP.
Stock solutions of standards and samples were prepared to approximately 900 IU/ml. The Teicoplanin standard contained approximately 25.0 mg in 4.0 ml water and buffer ad 25.0 ml. The samples of Teicoplanin compositions contained approximately 25.0 mg in 4.0 ml water and buffer ad 25.0 ml. The amount of sample was adjusted according to the actual amount of standard weighed. Finally, the standard and sample were diluted with buffer to the following concentrations:
The standard or sample was applied to the plates in accordance with an 8×8 Latin square design. Immediately after application, place the plates in the incubator at 34.0° C.±2° C., for 16-18 hours.
The results are analyzed by reading the zone diameters carefully with a 10× magnification and a precision of 0.1 mm. Statistical evaluation: for calculation and validation, follow the guidelines set out in Ph. Eur. and USP, using a computer program for all calculations.
In the spiking experiments, the amount of the investigated sample (amount of powder weighed) was reduced and replaced by a corresponding amount of spiking material or stock solutions were mixed in defined ratios.
(§2) Potency of teicoplanin TA2, TA3-1 alone or in combinations was determined by agar diffusion assays as described in example 1. Modified MIC-values in microtitre trays were determined as described in example 1.

[2] = system: S. aureus ATCC 6538; assay: Modified MIC test in micro titer trays; format: cell-based, Staphylococcus aureus; conditions: for MIC: 24 hours, 37° C.
Procedure: as §1
Pure TA3-1, (Teicoplanin Material B 96% TA2-X, 4% TA3-1) and mixtures thereof were used. The test strain used was S. aureus ATCC 6538 in final concentrations of 5×10^5/ml and 5×10^4/ml respectively. The test was carried out in micro titer trays as a modification of an ordinary MIC test. Instead of using two-fold dilutions, 0.40-1.20 μg/ml with 0.20 μl divisions and 1.0-4.0 μl/ml with 1.0 μl divisions was used. The trays were incubated at 37° C. The wells were examined after 24 hours and any visible growth was noted.
In order to strengthen the evidence some experiments were performed with a modified antimicrobial analysis of Teicoplanin, spiked with different amounts of TA3-1. It was carried out in liquid medium in contrast to the agar diffusion tests and determined the MIC values. The results are summarized in Table 4, (“MIC”-values of Teicoplanin and/or TA3-1 on S. aureus ATCC6538).
as §2

| SMILES | Potency IU/mg powder [1] | Potential potency IU/mg (TA2 + TA3-1) [1] | MIC ([2]; 5 × 10^4/ml S. aureus) | MIC ([2]; 5 × 10^5/ml S. aureus) | Antimicrobial effect on S. aureus compared with Teicoplanin ([2]; Example 1, MIC determination) | MIC value of pure TA3-1 relative to Targocid alone ([2]; Example 2, FIG. 6, MIC in μg powder/ml solution) | Antimicrobial effect on S. aureus relative to teicoplanin TA2 ([2]; Example 2, MIC determination) | Potency compared with Targocid ([1]; Example 2, agar diffusion) |
| --- | --- | --- | --- | --- | --- | --- | --- | --- |
| CC(=O)N[C@H]1[C@H](O[C@@H]2c3ccc(c(Cl)c3)Oc3cc4cc(c3O[C@@H]3O[C@H](CO)[C@@H](O)[C@H](O)[C@H]3NC(=O)CCCCCCC(C)C)Oc3ccc(cc3Cl)C[C@H]3NC(=O)[C@H](N)c5ccc(O)c(c5)Oc5cc(O)cc(c5)[C@H](NC3=O)C(=O)N[C@H]4C(=O)N[C@H]3C(=O)N[C@@H]2C(=O)N[C@H](C(=O)O)c2cc(O)cc(O[C@H]4O[C@H](CO)[C@@H](O)[C@H](O)[C@@H]4O)c2-c2cc3ccc2O)O[C@H](CO)[C@@H](O)[C@@H]1O [TA2-2, Teicoplanin A2-2] | 807 IU/mg powder and 776 IU/mg powder | 1017 IU/mg (TA2 + TA3-1) and 994 IU/mg (TA2 + TA3-1) |  |  |  |  |  |  |
| CC(=O)N[C@H]1[C@H](O[C@@H]2c3ccc(c(Cl)c3)Oc3cc4cc(c3O)Oc3ccc(cc3Cl)C[C@H]3NC(=O)[C@H](N)c5ccc(O)c(c5)Oc5cc(O)cc(c5)[C@H](NC3=O)C(=O)N[C@H]4C(=O)N[C@H]3C(=O)N[C@@H]2C(=O)N[C@H](C(=O)O)c2cc(O)cc(O[C@H]4O[C@H](CO)[C@@H](O)[C@H](O)[C@@H]4O)c2-c2cc3ccc2O)O[C@H](CO)[C@@H](O)[C@@H]1O [TA3-1, Teicoplanin A3-1] | 570 IU/mg powder | 687 IU/mg (TA2 + TA3-1) | 2 to 3 µg/mL | 2 to 3 µg/mL | much lower | 4-5 times higher | 4-5 | much lower potency |
